Laboratory results published in patent US9090593B2, “Bicyclic compounds as Pim inhibitors” (AMGEN INC., priority 2010, dated 2015).
Like-named read-outs stand apart in the source and are kept apart here.

What was measured:
[1] = molecular target: T1, full length recombinant Pim-1 protein (Homo sapiens, UniProt P11309); assay: Pim-1 enzyme assay (HTRF, phosphorylation of biotinylated-BAD (S112) peptide); format: biochemical; details: read-out: Pim_1_IC50
T1 construct: by full length recombinant Pim-1, Pim-2, or Pim-3 protein; hexahistidine tag followed by a thrombin cleavage site (N); made in house; host or cells: Sf9 (baculovirus) or E. coli (pET28)
Description: (§1) These cDNAs were used as templates in PCR reactions to produce full-length DNA clones of the PIMs. […] PCR products were digested with […] and EcoRI for Pim-1 and BamHI and EcoRI for Pim-2 and ligated into a modified baculovirus transfer vector (pFastBac1) cleaved with BamHI and EcoRI. For bacterial expression, the same cleaved PCR products encoding Pim-1 or Pim-2 were ligated into a modified E. coli expression vector pET28(a) cleaved with BamHI and EcoRI Amino-terminal hexahistidine tags followed by a thrombin cleavage site were previously added to the vectors using standard methods of molecular biology. Recombinant baculoviruses expressing Pim-1 or Pim-2 were made using standard methods (Fastbac manual, Invitrogen, Carlsbad, Calif.). Infection of Sf9 cells was done at an m.o.i. of greater than 5 for 24-48 h. Cells were harvested by centrifugation and frozen at −80 C. For E. coli expression, cells carrying pET28-His6-Th-Pim-1 or pET28-His6-Th-Pim-2 were picked from a single colony and grown o/n in LB media. The o/n culture was used to inoculate a 2 liter flask with 500 mL media. This was grown o/n and used to inoculate 15-20 liters of Terrific Broth in a New Brunswick Scientific fermentor. The E. coli were grown at 37° C. to and OD600>1.6. The temperature was dropped to 18° C. and o/n expression was induced with 0.5 mM IPTG. Cells were harvested by centrifugation and frozen at −80° C.
(§2) This step was repeated 3× and the resin was transferred to a 2.5 cm glass column. Ten column volumes of wash buffer (0.05 M HEPES, pH 8.0, 0.1 M NaCl, 0.01 M 2-mercaptoethanol, 10% (w/v) glycerol) were applied to the resin followed by 10 column volumes of elution buffer (0.05 M HEPES, pH 8.0, 0.25 M NaCl, 0.01 M 2-mercaptoethanol, 10% (w/v) glycerol, 0.1 M imidazole). Fractions were analyzed by SDS-PAGE and those containing the protein of interest were pooled and concentrated. The concentrated protein was applied to an Amersham Superdex 75 (XK 26/60) column equilibrated in 0.025 M Tris-HCl, pH 7.5, 0.1 M NaCl, 0.01 M 2-mercaptoethanol, 10% (w/v) glycerol. […] Fractions containing the monomeric protein of interest were pooled, concentrated to ˜2 mg/mL, and stored at −80° C.
(§3) The phosphorylation of biotinylated-BAD (S112) peptide by full length recombinant Pim-1, Pim-2, or Pim-3 protein was detected with streptavidin:Allophycocyanin (APC) conjugate and a europium (Eu) labeled antibody directed against phosphorylated-BAD (S112). […] The fluorescence is directly proportional to the amount of phosphorylated BAD peptide present in the reaction.
(§4) A reference compound was included on each assay plate in order to validate that plate; on one plate of every assay run, two additional reference compounds were included.
(§5) The final buffer conditions were as follows: 60 mM Hepes, pH 7.0, 0.05% BSA, 2 mM DTT. […] The reaction was stopped by the addition of 3 mM EDTA, and fluorescence was measured by an HTRF® Rubystar microplate reader. For each plate, percent of control (POC) values were calculated for each well. Values for the IC50 IP were estimated using a standard 4-parameter logistic model.

[2] = molecular target: T2, full length recombinant Pim-2 protein (Homo sapiens, UniProt Q9P1W9); assay: Pim-2 enzyme assay (HTRF, phosphorylation of biotinylated-BAD (S112) peptide); format: biochemical
T2 construct: by full length recombinant Pim-1, Pim-2, or Pim-3 protein; hexahistidine tag followed by a thrombin cleavage site (N); made in house; host or cells: Sf9 (baculovirus) or E. coli (pET28)
Description: as §1, §2, §3, §4, §5

T1 sequence (P11309 whole entry): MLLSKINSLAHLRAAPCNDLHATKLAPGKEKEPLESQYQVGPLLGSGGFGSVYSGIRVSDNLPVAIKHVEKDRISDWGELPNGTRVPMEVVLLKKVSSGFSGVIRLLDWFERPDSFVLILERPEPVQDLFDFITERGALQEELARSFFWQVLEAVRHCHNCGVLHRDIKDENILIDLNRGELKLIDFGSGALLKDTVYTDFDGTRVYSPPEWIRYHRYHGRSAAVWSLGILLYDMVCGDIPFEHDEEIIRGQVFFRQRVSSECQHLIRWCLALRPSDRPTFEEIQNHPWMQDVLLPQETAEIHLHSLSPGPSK
T2 sequence (Q9P1W9 whole entry): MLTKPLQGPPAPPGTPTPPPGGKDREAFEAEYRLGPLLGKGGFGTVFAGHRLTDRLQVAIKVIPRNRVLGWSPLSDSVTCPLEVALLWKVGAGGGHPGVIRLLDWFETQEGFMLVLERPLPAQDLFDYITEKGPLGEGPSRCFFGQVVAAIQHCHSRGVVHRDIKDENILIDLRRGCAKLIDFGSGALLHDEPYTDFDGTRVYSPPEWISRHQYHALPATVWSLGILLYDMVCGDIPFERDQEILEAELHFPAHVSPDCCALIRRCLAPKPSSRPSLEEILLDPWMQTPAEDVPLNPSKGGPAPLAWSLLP

Row | Compound | IC50 [1] [nM] | IC50 ([2]; read-out: Pim2_IC50) [µM] | IC50 ([2]; Pim2_IC50 (uM)) [µM]
1 | FC(F)(F)COc1cncc(-c2n[nH]c3ccc(-c4cncc(C5CC5)n4)cc23)n1 [Example 363] | 57 | 0.253 | 
2 | Fc1cccc(F)c1-c1ccc2[nH]nc(-c3cncc(OC4C=CCNC4)n3)c2c1 (single isomer, unassigned) [Example 426] | 105 | 0.174 | 
3 | Cn1nccc1-c1ccc2[nH]nc(-c3cncc(O[C@H]4CNCCC45CC5)n3)c2c1 [Example 252, 3-(6-((4R)-6-azaspiro[2.5]oct-4-yloxy)-2-pyrazinyl)-5-(1-methyl-1H-pyrazol-5-yl)-1H-indazole] | 70 | 0.121 | 
4 | O=C(O)c1ccc2[nH]cc(-c3cncc(N[C@@H]4CCCNC4)n3)c2c1 [Example 538] | 241 | > 1 | 
5 | N#Cc1ccc2[nH]nc(-c3cncc(O[C@H]4CNCCC45CC5)n3)c2c1 [Example 254, 3-(6-((4R)-6-azaspiro[2.5]oct-4-yloxy)-2-pyrazinyl)-1H-indazole-5-carbonitrile] | 364 |  | > 1
6 | COc1cncc(-c2n[nH]c3ccc(-c4nccc(NC5CC5)n4)cc23)n1 [Example 382] | 50 | 0.335 | 
7 | COc1cncc(-c2n[nH]c3ccc(-c4cc(C(F)(F)F)ccn4)cc23)n1 [Example 378] | 627 | > 1 | 
8 | O[C@@H]1CN(c2cncc(-c3n[nH]c4ccc(-c5c(F)cccc5F)cc34)n2)C[C@@H]1O [Example 448] | 105 | 0.137 | 
9 | c1cc(OC2CCCC2)nc(-c2ccc3[nH]cc(-c4cncc(O[C@@H]5CCCNC5)n4)c3c2)c1 [Example 298] | 31 | 0.234 | 
10 | O=c1cc(-c2n[nH]c3ccc(-c4c(F)cccc4F)cc23)nc(N2CC[C@H](O)C2)[nH]1 [Example 543] | 30 | 0.058 | 
11 | CN(C)C(=O)c1ccc2[nH]nc(-c3ccnc(N[C@@H]4CCCNC4)n3)c2c1 [Example 481] | 444 | 0.719 | 
12 | c1ccc(Nc2ccc3[nH]nc(-c4cncc(O[C@H]5CNCCC56CC6)n4)c3c2)cc1 [Example 251, 3-(6-((4R)-6-azaspiro[25]oct-4-yloxy)-2-pyrazinyl)-N-phenyl-1H-indazol-5-amine bis(2,2,2-trifluoroacetate)] | 4 | 0.039 | 
13 | Clc1cncc(-c2ccc3[nH]cc(-c4cncc(O[C@@H]5CCCNC5)n4)c3c2)c1 [Example 505] | 29 | 0.225 | 
14 | COc1cc(C#N)cc(-c2ccc3[nH]cc(-c4cncc(O[C@@H]5CCCNC5)n4)c3c2)c1OC(C)C [Example 354] | 834 | > 1 | 
15 | O=C(O)c1ccc2[nH]cc(-c3nccc(N[C@@H]4CCCNC4)n3)c2c1 [Example 539] | 834 | > 1 | 
16 | COC(=O)c1ccc2[nH]nc(-c3nccc(N[C@@H]4CCCNC4)n3)c2c1 [Example 486] | 72 | 0.543 | 
17 | CC(C)Oc1ccc(-c2ccc3[nH]cc(-c4cncc(O[C@@H]5CCCNC5)n4)c3c2)cc1C#N [Example 352] | 30 | 0.133 | 
18 | COc1ncccc1-c1ccc2[nH]cc(-c3cncc(O[C@@H]4CCCNC4)n3)c2c1 [Example 328] | 28 | 0.141 | 
19 | Fc1cccc(F)c1-c1ccc2[nH]nc(-c3cncc(OC4CCNCC45CC5)n3)c2c1 (single isomer, unassigned) [Example 429] | 30 | 0.076 | 
20 | CC(C)Oc1cncc(-c2ccc3[nH]cc(-c4nnc(N5CCCC5)o4)c3c2)n1 [Example 520] | 52 | 0.527 | 
21 | C=C(Cl)c1ccccc1-c1ccc2[nH]nc(-c3cncc(O[C@H]4CNCCC45CC5)n3)c2c1 [Example 267, 3-(6-((4R)-6-azaspiro[25]oct-4-yloxy)-2-pyrazinyl)-5-(2-(1-chloroethenyl)phenyl)-1H-indazole bis(2,2,2-trifluoroacetate)] | 30 | 0.044 | 
22 | COc1cc(C#N)c(-c2ccc3[nH]cc(-c4cncc(O[C@@H]5CCCNC5)n4)c3c2)cc1OC(C)C [Example 342] | 159 | > 1 | 

Row | Compound | IC50 [1] [nM] | IC50 ([2]; read-out: Pim2_IC50) [µM] | IC50 ([2]; Pim2_IC50 (uM)) [µM]
23 | CC(=O)Nc1cc(-c2ccc3[nH]cc(-c4cncc(O[C@@H]5CCCNC5)n4)c3c2)cc(C(F)(F)F)c1 [Example 349] | 30 | 0.29 | 
24 | c1ncc(-c2ccc3[nH]cc(-c4cncc(O[C@@H]5CCCNC5)n4)c3c2)cc1NC1CC1 [Example 502] | 20 | 0.424 | 
25 | COc1cc(N2CCC(N)CC2)nc(-c2c[nH]c3ccc(-c4c(F)cccc4F)cc23)n1 [Example 563] | 87 | 0.143 | 
26 | Cc1ccc(C(=O)NC2CCC2)cc1-c1ccc2[nH]cc(-c3cncc(O[C@@H]4CCCNC4)n3)c2c1 [Example 314] | 288 | 0.428 | 
27 | CC(C)Nc1nnc(-c2c[nH]c3ccc(-c4cncc(OC(C)C)n4)cc23)o1 [Example 522] | 90 | 0.446 | 
28 | c1cc2[nH]cc(-c3cncc(O[C@@H]4CCCNC4)n3)c2cc1-c1cncc(C2CCCN2)c1 (some centres unmarked) [Example 340] | 42 | 0.26 | 
29 | CCCCc1nc(-c2n[nH]c3ccc(-c4c(F)cccc4F)cc23)cc(=O)[nH]1 [Example 535] | 70 | 0.262 | 
30 | CN(C)C(=O)c1ccc2[nH]nc(-c3cncc(N4CCC(N)CC4)n3)c2c1 [Example 484] | 374 | > 1 | 
31 | c1cnn(-c2cnc(-c3ccc4[nH]cc(-c5cncc(O[C@@H]6CCCNC6)n5)c4c3)cn2)c1 [Example 300] | 42 | 0.115 | 
32 | CC(C)Oc1cncc(-c2ccc3[nH]cc(-c4nnc(N5CCC(N)CC5)o4)c3c2)n1 [Example 280, 1-(5-(5-(6-isopropoxypyrazin-2-yl)-1H-indol-3-yl)-1,3,4-oxadiazol-2-yl)piperidin-4-amine] | 22 | 0.161 | 
33 | COC(=O)c1ccc2[nH]nc(-c3ccnc(O[C@@H]4CCCNC4)n3)c2c1 [Example 497] | 46 | 0.207 | 
34 | NC(=O)c1ccc(F)c(-c2ccc3[nH]nc(-c4cncc(OCCF)n4)c3c2)c1 [Example 390] | 119 | 0.241 | 
35 | CNC(=O)c1ccc2[nH]nc(-c3cncc(O[C@@H]4CCCNC4)n3)c2c1 [Example 478] | 180 | > 1 | 
36 | COC(=O)c1ccc2[nH]nc(-c3nccc(N4CCC(N)CC4)n3)c2c1 [Example 488] | 46 | 0.055 | 
37 | c1cc(C2CC2)nc(-c2ccc3[nH]cc(-c4cncc(C5CC5)n4)c3c2)n1 [Example 370] | 126 | > 1 | 
38 | CN(C)C(=O)c1ccc2[nH]nc(-c3ccnc(N4CCC(N)CC4)n3)c2c1 [Example 284, 3-(2-(4-aminopiperidin-1-yl)pyrimidin-4-yl)-N,N-dimethyl-1H-indazole-5-carboxamide] | 839 | > 1 | 
39 | OC1CN(c2cncc(-c3n[nH]c4ccc(-c5c(F)cccc5F)cc34)n2)CC1O (centres unmarked) [Example 450] | 159 | 0.453 | 
40 | CN1CCC(Oc2cncc(-c3n[nH]c4ccc(-c5c(F)cccc5F)cc34)n2)CC1 [Example 445] | 20 | 0.043 | 
41 | CC(C)Oc1cncc(-c2ccc3[nH]cc(-c4nn(C(C)C)c(=O)o4)c3c2)n1 [Example 281, 5-(5-(6-isopropoxypyrazin-2-yl)-1H-indol-3-yl)-3-isopropyl-1,3,4-oxadiazol-2(3H)-one] | 70 | 0.597 | 
42 | c1cnc(-c2c[nH]c3ccc(-c4cncc(C5CC5)n4)cc23)cn1 [Example 521] | 425 | > 1 | 
43 | Fc1cccc(F)c1-c1ccc2[nH]cc(-c3cncc(OC4CNCCC45CC5)n3)c2c1 (single isomer, unassigned) [Example 439] | 159 | 0.407 | 
